Where a name gives a salt, the structure may show the parent alone.
melting point [°C] | SMILES
175 to 177 | CS(=O)(=O)c1ccc(-n2nc(C(F)(F)F)cc2-c2ccc(-c3cocn3)cc2)cc1 (as salt: hydrochloride) [Example 95, 4-{4-[1-[4-(Methylsulfonyl)phenyl]-3-(trifluoromethyl)-1H-pyrazol-5-yl]phenyl}-1,3-oxazole]
216 | Cc1onc(-c2ccc(-c3cscn3)cc2)c1-c1ccc(S(N)(=O)=O)c(F)c1 [Example 172, 2-Fluoro-4-{5-methyl-3-[4-(1,3-thiazol-4-yl)phenyl]-4-isoxazolyl}benzenesulfonamide]
128 to 130 | CS(=O)(=O)c1ccc(-n2nc(C(F)(F)F)cc2-c2ccc(-c3cscn3)c(Cl)c2)cc1 (as salt: hydrochloride) [Example 119, 4-{2-Chloro-4-[1-[4-(methylsulfonyl)phenyl]-3-(trifluoromethyl)-1H-pyrazol-5-yl]phenyl}-1,3-thiazole]
168 to 170 | NS(=O)(=O)c1ccc(-n2nc(C(F)(F)F)cc2-c2ccc(-c3cscn3)cc2)cc1F (as salt: hydrochloride) [Example 103, 2-Fluoro-4-[5-[4-(1,3-thiazol-4-yl)phenyl]-3-(trifluoromethyl)-1H-pyrazol-1-yl]benzenesulfonamide]
180.9 to 181.1 | CCOC(=O)c1cc(-c2ccc(-c3ccco3)cc2)n(-c2ccc(S(C)(=O)=O)cc2)n1 [Example 65, Ethyl 5-[4-(2-furyl)phenyl]-1-[4-(methylsulfonyl)phenyl]-1H-pyrazole-3-carboxylate]
236.8 | CS(=O)(=O)c1ccc(C2=C(c3ccc(-c4cscn4)cc3)C(=O)OC2)cc1 [Example 182, 4-[4-(Methylsulfonyl)phenyl]-3-[4-(1,3-thiazol-4-yl)phenyl]-2(5H)-furanone]
215.8 | CC1(C)OC(=O)C(c2ccc(-c3cscn3)cc2)=C1c1ccc(S(C)(=O)=O)cc1 [Example 166, 5,5-Dimethyl-4-[4-(methylsulfonyl)phenyl]-3-[4-(1,3-thiazol-4-yl)phenyl]-2(5H)-furanone]
95 to 97 | CS(=O)(=O)c1ccc(-n2cc(C(F)(F)F)nc2-c2ccc(-c3cccs3)cc2)cc1 [Example 52, 1-[4-(Methylsulfonyl)phenyl]-2-[4-(2-thienyl)phenyl]-4-(trifluoromethyl)-1H-imidazole]
256 to 257 | CCOc1cc(-n2nc(C(=O)O)cc2-c2ccc(-c3ccco3)cc2)ccc1S(C)(=O)=O [Example 127, 1-[3-Ethoxy-4-(methylsulfonyl)phenyl]-5-[4-(2-furyl)phenyl]-1H-pyrazole-3-carboxylic Acid]
154 to 156 | Cc1cc(-c2ccc(S(C)(=O)=O)cc2)n(-c2ccc(-c3ccoc3)cc2)c1 [Example 55, 1-[4-(3-Furyl)phenyl]-4-methyl-2-[4-(methylsulfonyl)phenyl]-1H-pyrrole]
87 to 89 | Cc1cc(S(N)(=O)=O)ccc1-n1nc(C(F)(F)F)cc1-c1ccc(-c2ccco2)cc1 (as salt: hydrochloride) [Example 145, 4-[5-[4-(2-Furyl)phenyl]-3-(trifluoromethyl)-1H-pyrazol-1-yl]-3-methylbenzenesulfonamide]
82 to 84 | CS(=O)(=O)c1ccc(-n2cc(C(F)(F)F)nc2-c2ccc(-c3ccco3)cc2)cc1 [Example 53, 2-[4-(2-Furyl)phenyl]-1-[4-(methylsulfonyl)phenyl]-4-(trifluoromethyl)-1H-imidazole]
99.5 | Cc1cc(-c2noc(C)c2-c2ccc(S(C)(=O)=O)c(F)c2)ccc1-c1cscn1 [Example 170, 4-[3-Fluoro-4-(methylsulfonyl)phenyl]-5-methyl-3-[3-methyl-4-(1,3-thiazol-4-yl)phenyl]isoxazole]
137.4 | Cc1cc(-n2nc(C(F)(F)F)cc2-c2ccc(-c3ccco3)cc2)ccc1S(N)(=O)=O (as salt: hydrochloride) [Example 143, 4-[5-[4-(2-Furyl)phenyl]-3-(trifluoromethyl)-1H-pyrazol-1-yl]-2-methylbenzenesulfonamide]
78 to 80 | Cc1cc(-c2cc(C(F)(F)F)nn2-c2ccc(S(N)(=O)=O)c(F)c2)ccc1-c1ccco1 [Example 139, 2-Fluoro-4-[5-[4-(2-furyl)-3-methylphenyl]-3-(trifluoromethyl)-1H-pyrazol-1-yl]benzenesulfonamide]
119 | Cc1noc(-c2ccc(S(C)(=O)=O)cc2)c1-c1ccc(-c2cscn2)cc1 [Example 191, 3-Methyl-5-[4-(methylsulfonyl)phenyl]-4-[4-(1,3-thiazol-4-yl)phenyl]isoxazole]
224 to 226 | NS(=O)(=O)c1ccc(-n2nc(C(F)(F)F)cc2-c2ccc(-c3cscn3)c(O)c2)cc1F (as salt: hydrochloride) [Example 174, 2-Fluoro-4-[5-[3-hydroxy-4-(1,3-thiazol-4-yl)phenyl]-3-(trifluoromethyl)-1H-pyrazol-1-yl]benzenesulfonamide]
206.7 | COc1cc(-n2nc(C(F)(F)F)cc2-c2ccc(-c3ccco3)cc2)ccc1S(N)(=O)=O (as salt: hydrochloride) [Example 148, 4-[5-[4-(2-Furyl)phenyl]-3-(trifluoromethyl)-1H-pyrazol-1-yl]-2-methoxybenzenesulfonamide]

melting point [°C] | SMILES
174 to 176 | Cc1cc(-c2cc(C(F)(F)F)nn2-c2ccc(S(C)(=O)=O)cc2)ccc1-c1ccco1 (as salt: hydrochloride) [Example 31, 1-[4-(Methylsulfonyl)phenyl]-5-[4-(2-furyl)-3-methylphenyl]-3-(trifluoromethyl)-1H-pyrazole]
74 to 76 | CS(=O)(=O)c1ccc(-n2nc(C(F)(F)F)cc2-c2ccc(-c3ccoc3)cc2)cc1F [Example 85, 1-[3-Fluoro-4-(methylsulfonyl)phenyl]-5-[4-(3-furyl)phenyl]-3-(trifluoromethyl)-1H-pyrazole]
197 to 198 | Cc1cc(-c2nc(C(F)(F)F)cn2-c2ccc(S(C)(=O)=O)c(F)c2)ccc1-c1cscn1 [Example 178, 1-[3-Fluoro-4-(methylsulfonyl)phenyl]-2-[3-methyl-4-(4-thiazolyl)phenyl]-4-trifluoromethyl-1H-imidazole]
179 to 182 | Cc1ccc(-c2ccc(S(C)(=O)=O)c(F)c2)n1-c1ccc(-c2ccco2)cc1 [Example 35, 5-[3-Fluoro-4-(methylsulfonyl)phenyl]-1-[4-(2-furyl)phenyl]-2-methyl-1H-pyrrole]
174.4 | NS(=O)(=O)c1ccc(-n2nc(C(F)(F)F)cc2-c2ccc(-c3ccco3)cc2)c(F)c1 (as salt: hydrochloride) [Example 141, 3-Fluoro-4-[5-[4-(2-furyl)phenyl]-3-(trifluoromethyl)-1H-pyrazol-1-yl]benzenesulfonamide]
145 to 147 | Cc1ccc(-c2ccc(S(C)(=O)=O)cc2)n1-c1ccc(-c2ccco2)cc1 [Example 44, 1-[4-(2-Furyl)phenyl]-2-methyl-5-[4-(methylsulfonyl)phenyl]-1H-pyrrole]
176 to 178 | CS(=O)(=O)c1ccc(-n2nc(C(F)(F)F)cc2-c2ccc(-c3cscn3)c(F)c2)cc1 (as salt: hydrochloride) [Example 124, 4-{2-Fluoro-4-[1-[4-(methylsulfonyl)phenyl]-3-(trifluoromethyl)-1H-pyrazol-5-yl]phenyl}-1,3-thiazole]
151 | NS(=O)(=O)c1ccc(-n2nc(C(F)(F)F)cc2-c2ccc(-c3ccco3)cc2)cc1F (as salt: hydrochloride) [Example 137, 2-Fluoro-4-[5-[4-(2-furyl)phenyl]-3-(trifluoromethyl)-1H-pyrazol-1-yl]benzenesulfonamide]
178 to 180 | CS(=O)(=O)c1ccc(-n2nc(C(F)(F)F)cc2-c2ccc(-c3cnco3)cc2)cc1 (as salt: hydrochloride) [Example 76, 1-[4-(Methylsulfonyl)phenyl]-5-[4-(5-oxazolyl)phenyl]-3-(trifluoromethyl)-1H-pyrazole]
165 to 168 | Cc1ccc(-c2ccc(S(C)(=O)=O)cc2)n1-c1ccc(-c2ccoc2)c(Cl)c1 [Example 41, 1-[3-Chloro-4-(3-furyl)phenyl]-2-methyl-5-[4-(methylsulfonyl)phenyl]-1H-pyrrole]
204 to 206 | COC(=O)c1cc(-c2ccc(-c3nccs3)cc2)n(-c2ccc(S(N)(=O)=O)cc2)n1 [Example 88, Methyl 1-(4-sulfamoylphenyl)-5-[4-(2-thiazolyl)phenyl]-1H-pyrazole-3-carboxylate]
170 to 172 | NS(=O)(=O)c1ccc(-n2nc(C(F)(F)F)cc2-c2ccc(-c3cocn3)cc2)cc1 (as salt: hydrochloride) [Example 118, 4-[5-[4-(1,3-Oxazol-4-yl)phenyl]-3-(trifluoromethyl)-1H-pyrazol-1-yl]benzenesulfonamide]
130 | Cc1onc(-c2ccc(-c3cscn3)cc2)c1-c1ccc(S(C)(=O)=O)c(F)c1 [Example 168, 4-[3-Fluoro-4-(methylsulfonyl)phenyl]-5-methyl-3-[4-(1,3-thiazol-4-yl)phenyl]isoxazole]
145 to 147 | Cc1cn(-c2ccc(S(N)(=O)=O)c(F)c2)c(-c2ccc(-c3cscn3)cc2)n1 [Example 179, 2-Fluoro-4-[4-methyl-2-[4-(4-thiazolyl)phenyl]-1H-imidazol-1-yl]benzenesulfonamide]
180.3 | Cc1cc(C2=C(c3ccc(S(C)(=O)=O)cc3)C(C)(C)OC2=O)ccc1-c1cscn1 [Example 184, 5,5-Dimethyl-3-[3-methyl-4-(1,3-thiazol-4-yl)phenyl]-4-[4-(methylsulfonyl)phenyl]-2(5H)-furanone]
192 to 194 | Cc1nc(-c2ccc(S(N)(=O)=O)c(F)c2)c(-c2ccc(-c3cscn3)cc2)o1 [Example 193, 2-fluoro-4-[2-methyl-5-[4-(1,3-thiazol-4-yl)phenyl]-1,3-oxazol-4-yl]benzenesulfonamide]
171.5 to 173 | CS(=O)(=O)c1ccc(-n2nc(C(=O)O)cc2-c2ccc(-c3ccco3)cc2)cc1F [Example 128, 1-[3-Fluoro-4-(methylsulfonyl)phenyl]-5-[4-(2-furyl)phenyl]-1H-pyrazole-3-carboxylic Acid]

Source: patent publication US6949536B2, “Sulfonylbenzene compounds as anti-inflammatory/analgesic agents” (Pfizer, Inc., priority 1998, dated 2005)
